Among the test systems are 786-0 renal; CAKI-1 renal; COLO 205 colon; IGROV1 ovarian; KM12 colon; SF-539 CNS; SK-MEL-2 melanoma; SN12C renal; UACC-257 melanoma.
Common to all, as to test: DTP human tumour cell line panel, 48 h

The results in this text go back to PubChem BioAssay (NCI).

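These data come from cells grown in 96-well plates and exposed to compound for 48 hours at five concentrations. TGI marks complete inhibition of growth.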

On to `Cc1cc(NS(=O)(=O)c2ccc(NC(=O)c3cccc4c(=O)c5ccccc5[nH]c34)cc2)no1`, for which the TGI with 786-0 renal was 38.2 µM; with CAKI-1 renal, more than 100 µM; with COLO 205 colon it was more than 100 µM; in the assay with IGROV1 ovarian it was more than 100 µM; in the assay on KM12 colon, more than 100 µM; in the assay on SF-539 CNS, more than 100 µM. For the same compound, the TGI with SK-MEL-2 melanoma, in the assay on SN12C renal and in the assay on UACC-257 melanoma was more than 100 µM each time.
Regarding `COC(=O)C(=O)C(C(=O)C=C(C)C)C(=O)C(=O)Nc1ccc(Cl)cc1C` (configuration not stated), the TGI in the assay on 786-0 renal, in the assay with CAKI-1 renal, with COLO 205 colon, with IGROV1 ovarian, in the assay with KM12 colon and in the assay on SF-539 CNS was more than 100 µM each time. In addition, the TGI in the assay with SK-MEL-2 melanoma, in the assay with SN12C renal and with UACC-257 melanoma was more than 100 µM throughout.
As for `CC(=O)SCCC1c2[nH]c3ccccc3c2CCN1O` (configuration not stated), the TGI with 786-0 renal, with CAKI-1 renal, with COLO 205 colon, in the assay on IGROV1 ovarian, in the assay on KM12 colon and in the assay with SF-539 CNS was more than 100 µM each time. In addition, the total growth inhibition concentration (TGI) in the assay on SK-MEL-2 melanoma, with SN12C renal and with UACC-257 melanoma was more than 100 µM throughout.
Turning to `CCC(C)(O)c1cn(-c2cccc(S(=O)(=O)O)c2)nn1` (configuration not stated), the concentration for total growth inhibition (TGI) with 786-0 renal, in the assay with CAKI-1 renal, with COLO 205 colon, in the assay on IGROV1 ovarian, in the assay on KM12 colon and in the assay on SF-539 CNS was more than 100 µM throughout. Also, the total growth inhibition concentration (TGI) in the assay on SK-MEL-2 melanoma, in the assay on SN12C renal and with UACC-257 melanoma was more than 100 µM each time.
In the case of `CCOC(=O)[C@H]1Nc2ccc(C)cc2C2c3ccccc3CC21` (some centres not stated), the TGI in the assay on 786-0 renal, in the assay with CAKI-1 renal, with COLO 205 colon, in the assay with IGROV1 ovarian, with KM12 colon and with SF-539 CNS was more than 100 µM in each case. The total growth inhibition concentration (TGI) with SK-MEL-2 melanoma, with SN12C renal and in the assay on UACC-257 melanoma was more than 100 µM throughout.
As for `CNC=O.[O]=[Ge].[O]=[Ge].[O]=[Ge].[O]=[Ge][OH].[O]=[Ge][OH]`, the TGI in the assay on 786-0 renal, in the assay with CAKI-1 renal, in the assay on IGROV1 ovarian, in the assay on KM12 colon, with SF-539 CNS and in the assay with SK-MEL-2 melanoma was more than 100 µM in each case. The TGI with SN12C renal and with UACC-257 melanoma was more than 100 µM in each case.
As for `CCN(CC)C(=O)C/C(C)=N/NC(=O)c1ccncc1`, the TGI in the assay with 786-0 renal, with COLO 205 colon, in the assay on IGROV1 ovarian, with KM12 colon, with SF-539 CNS and in the assay with SK-MEL-2 melanoma was more than 100 µM throughout. In the assay with UACC-257 melanoma, this compound registered a total growth inhibition concentration (TGI) of more than 100 µM.
Regarding `COC(=O)C(=O)C(C(=O)C(=O)Nc1ccc(C)cc1C)c1nc2ccccc2[nH]c1=O` (configuration not stated), the TGI in the assay with 786-0 renal was more than 100 µM; with CAKI-1 renal, 68.9 µM; with COLO 205 colon, more than 100 µM; in the assay with IGROV1 ovarian, more than 100 µM; in the assay on KM12 colon, more than 100 µM; in the assay with SF-539 CNS, 98.5 µM. In addition, the TGI with SK-MEL-2 melanoma, in the assay on SN12C renal and with UACC-257 melanoma was more than 100 µM each time.
On to `CSc1ccc(/C=C2/C[N+](C)(C)C/C(=C/c3ccc(SC)cc3)C2=O)cc1`, for which the TGI in the assay with 786-0 renal came to 26.8 µM; with COLO 205 colon, 17.8 µM; in the assay on KM12 colon, 15.9 µM; in the assay on SF-539 CNS, 34 µM; in the assay on SK-MEL-2 melanoma, 36.2 µM; in the assay on SN12C renal, 21.2 µM. In the assay on UACC-257 melanoma, this compound showed a concentration for total growth inhibition (TGI) of 37.8 µM.
As for `N#Cc1cnsc1`, the TGI in the assay on 786-0 renal, in the assay with CAKI-1 renal, in the assay on COLO 205 colon, with IGROV1 ovarian, with KM12 colon and with SF-539 CNS was more than 100 µM throughout. Further, the TGI in the assay on SK-MEL-2 melanoma, in the assay with SN12C renal and in the assay on UACC-257 melanoma was more than 100 µM in each case.
Turning to `O=C(/C=C/c1ccccc1Cl)c1ccccc1Cl`, the TGI in the assay with 786-0 renal stood at 28.8 µM; in the assay with CAKI-1 renal, 38.1 µM; with COLO 205 colon, 44.8 µM; with IGROV1 ovarian, 33.3 µM; with KM12 colon, 29.3 µM; in the assay on SF-539 CNS, 36.7 µM. Further, the results for the TGI with SN12C renal and with UACC-257 melanoma were 41.4 µM and 60.4 µM, respectively.
As for `N#CCCN(CCC#N)c1ccc(C(=O)NN)cc1`, the total growth inhibition concentration (TGI) in the assay with 786-0 renal, in the assay on CAKI-1 renal, with COLO 205 colon, in the assay with IGROV1 ovarian, in the assay on KM12 colon and in the assay with SF-539 CNS was more than 100 µM throughout. Also, the TGI with SN12C renal and with UACC-257 melanoma was more than 100 µM in each case.
On to `N#CCCN(CCC#N)c1ccc(/C=C2\N=C(CN3C(=O)c4ccccc4C3=O)OC2=O)cc1`, for which the TGI in the assay on 786-0 renal, with CAKI-1 renal, with IGROV1 ovarian, with KM12 colon, with SF-539 CNS and in the assay on SK-MEL-2 melanoma was more than 100 µM throughout. For the same compound, the TGI with SN12C renal and in the assay with UACC-257 melanoma was more than 100 µM each time.
For `CC(C)=CC(=O)N1CCN(C(=O)C=C(C)C)CC1`, the TGI with 786-0 renal, with CAKI-1 renal, with IGROV1 ovarian, in the assay on KM12 colon, in the assay with SF-539 CNS and in the assay on SN12C renal was more than 100 µM each time. The compound further gave a concentration for total growth inhibition (TGI) in the assay on UACC-257 melanoma of more than 100 µM.
In the case of `CN(C)C(=S)/N=c1\ss/c(=N\C(=S)N(C)C)n1-c1ccc2c(c1)OCO2`, the TGI in the assay on 786-0 renal, with CAKI-1 renal, in the assay with IGROV1 ovarian, in the assay with KM12 colon, with SF-539 CNS and in the assay on SK-MEL-2 melanoma was more than 100 µM throughout. The TGI with SN12C renal and in the assay on UACC-257 melanoma was more than 100 µM in each case.
For the compound `O=C(CC(=O)N1N=C(c2ccccc2)C(N=Nc2ccc(Cl)cc2)C1=O)Nc1ccccc1Cl` (configuration not stated), the TGI is 26 µM in the assay with 786-0 renal; 85.1 µM with CAKI-1 renal; more than 100 µM with COLO 205 colon; more than 100 µM in the assay on IGROV1 ovarian; more than 100 µM in the assay on KM12 colon; 68.2 µM in the assay on SF-539 CNS. Also, the TGI with SK-MEL-2 melanoma is 88.6 µM; in the assay with SN12C renal, more than 100 µM.

Broadly, the TGI is the concentration at which net growth stops. Low readings indicate greater sensitivity of the cells, high ones lower sensitivity of the cells.
